# According to patent US12152030B2 (NOVOSTAR PHARMACEUTICALS, LTD., priority 2019, dated 2024):
# What was measured:
# IL-6 = test: Secretion level of IL-6 in PHA-activated PBMC culture supernatants; type: cell-based, human; conditions: 5 μg/ml PHA, 0.01-10 μM, 48 hours
# Description: (§1) Gradient centrifugation was used to extract PBMC cells from peripheral blood of healthy people. The PBMC cells were activated with 5 μg/ml PHA (Sigma), and treated with different concentrations of compounds (0, 0.01, 0.1, 1, 3, 10 μM). After 48 hours, the cells and culture supernatants were collected, respectively. Flow cytometry was used to detect the expression of immune checkpoints, PD-1, Tim-3 and Lag-3 on cell surface, and to detect the secretion level of various cytokines (IL-6, IL-10 and TNF-α) in the cell culture supernatants.
# PD-1 = test: Expression of immune checkpoint PD-1 on cell surface of PHA-activated PBMC (flow cytometry); type: cell-based, human; conditions: 5 μg/ml PHA, 0.01-10 μM, 48 hours
# Description: as §1
# [1] = Pharmacokinetic study in rats; type: in vivo; conditions: male, SD, plasma, rat
# Description: In the examples, rat pharmacokinetic tests were performed for compounds 2 and 26 to illustrate their pharmacokinetic properties in rats.
# Formulation of Liquors of Compound 2: […]
# Experimental Method for Pharmacokinetic Study in Rats
# (§2) Six SD rats, male, weighing 180-220 g, fasting for 12 hours, were randomly divided into 2 groups, 3 in each group. The animals in group A were intragastrically administrated with the compound liquor at a dose of 10 mg/kg; the animals in group B were intravenously administrated with the compound liquor via tails at a dose of 3 mg/kg. Blank blood was harvested before administration; about 100 μL of venous blood was harvested at different time points after administration, placed in a test tube added with heparin and centrifuged, and about 50 μL of blood plasma was collected and stored at −20° C. for testing.
# Formulation of Liquors of Compound 26: […]
# Formulation of solution for intravenous administration: compound 26 was dissolved in a solution of 5% DMSO+10% Solutol HS15+85% (20% HP-(3-CD physiological saline).
# Formulation of suspension for intragastric administration: compound 26 was dissolved in a solution of 5% DMSO+10% Solutol HS15+85% (20% HP-(3-CD physiological saline).
# Administration dosage of compound 26: 1 mg/kg for intravenous injection, 3 mg/kg for intragastric administration.
# as §2, with “of 3” for “of 10”, “of 1” for “of 3”
# TNF-α = test: Secretion level of TNF-α in PHA-activated PBMC culture supernatants; type: cell-based, human; conditions: 5 μg/ml PHA, 0.01-10 μM, 48 hours
# Description: as §1
# Lag-3 = test: Expression of immune checkpoint Lag-3 on cell surface of PHA-activated PBMC (flow cytometry); type: cell-based, human; conditions: 5 μg/ml PHA, 0.01-10 μM, 48 hours
# Description: as §1
# MNK2 = MNK2 (Homo sapiens, UniProt Q9HBH9); test: MNK biological enzyme assay (HTRF kinase assay), MNK2; type: biochemical; set-up: purchased ThermoFisher PV5607; conditions: 1 ng/μl MNK2, 1 μM STK1 peptide, 100 μM ATP
# Description: (§3) A HTRF kinase assay kit (Cisbio, catalog number 62ST1PEB) was used to determine the MNK inhibitory activity of the compounds. All kinase reactions were performed in the reaction buffer (provided in the kit). The final MNK1 reaction involved 3 ng/ul recombinant MNK1 (ThermoFisher, PV6023), 1 μM MNK substrate peptide STK1 (provided in the kit), 100 μM ATP, and different concentrations of the inhibitory compounds of interest. The final MNK2 reaction involved 1 ng/μl recombinant MNK2 (ThermoFisher, PV5607), 1 μM MNK substrate peptide STK1 (provided in the kit), 100 μM ATP, and different concentrations of the inhibitory compounds of interest. The final DMSO concentration in each of the reactions was 1%.
# (§4) The kinase reaction was performed in a final volume of 10 μl in a 384-well white flat-bottomed polystyrene plate. The MNK1/2 enzyme was pre-incubated with the compound and substrate peptide for 5 minutes, and then ATP was added thereto. After addition of ATP, the kinase reaction was incubated at 25° C. for 120 minutes or 60 minutes. The reaction was subsequently terminated by adding 5 μl of EU3+ substrate antibody detection reagent and 5 μl of XL665 detection reagent, and incubating for another 60 minutes. The luminescent signal was detected with an EnVision microplate reader counter (Perkin Elmer), and the signal from 10-point dilution series of the compounds was used to calculate the compound concentration (IC50) required to achieve 50% inhibition of enzyme activity.
# (§5) In this respect, IC50 values which are less than 0.01 μM were marked as “+++”, which are from 0.01 to 0.1 μM were marked as “++”, and which are greater than 0.1 and up to 10.0 μM were marked as “+”, and NA meant “not detected”.
# Phosphorylated eIF4E = test: Intracellular peIF4E signaling assay; type: cell-based; conditions: 2 h; two hours incubation at 37° C.; read-out: peIF4E signaling cell assay IC50
# Description: Phosphorylated eIF4E was determined using CisBio peIF4E assay kit (CisBio, catalog number 64EF4PEG). The cells were plated in a 96-well cell culture plate in a volume of 90 μL, and the number of cells per well was 5*10^4. The compounds (10×) were subjected to 3-fold serial dilution, added to the cell plate in a volume of 10 μL with the final DMSO concentration being 1%, and incubated at 37° C. for two hours. The cell plate was centrifuged at 300 g for 5 minutes, and the cell supernatant was carefully removed. The cell plate was immediately added with 50 μL of cell lysis buffer […] and incubated at 25° C. with shaking for at least 30 minutes. After homogenization by pipetting, 16 μL of cell lysate was transferred from the 96-well cell culture plate to a 384-well small-volume microwell plate. According to the kit instruction, an antibody mixture solution was prepared with a detection buffer, and was added in a volume of 4 μL to the 384-well small-volume microwell plate containing the cell lysate. The plate was covered with a plate sealer, incubated overnight at 25° C., and was read for fluorescence emission at two different wavelengths (665 nm and 615 nm) on the EnVision microplate reader counter. The emission ratio was imported into a GraphPadPrism software to fit the compound concentration (IC50) required for 50% inhibition of enzyme activity.
# In this respect, IC50 values which are less than 0.05 μM were marked as “+++”, which are from 0.05 to 1.0 μM were marked as “++”, and which are greater than 1.0 and up to 100 μM were marked as “+”, and NA meant “not detected”.
# MNK1 = MNK1 (Homo sapiens, UniProt Q9BUB5); test: MNK biological enzyme assay (HTRF kinase assay), MNK1; type: biochemical; set-up: purchased ThermoFisher PV6023; conditions: 3 ng/ul MNK1, 1 μM STK1 peptide, 100 μM ATP
# Description: as §3, §4, §5
# Tim-3 = test: Expression of immune checkpoint Tim-3 on cell surface of PHA-activated PBMC (flow cytometry); type: cell-based, human; conditions: 5 μg/ml PHA, 0.01-10 μM, 48 hours
# Description: as §1
# IL-10 = test: Secretion level of IL-10 in PHA-activated PBMC culture supernatants; type: cell-based, human; conditions: 5 μg/ml PHA, 0.01-10 μM, 48 hours
# Description: as §1
# Chain of MNK2 (Q9HBH9 whole entry): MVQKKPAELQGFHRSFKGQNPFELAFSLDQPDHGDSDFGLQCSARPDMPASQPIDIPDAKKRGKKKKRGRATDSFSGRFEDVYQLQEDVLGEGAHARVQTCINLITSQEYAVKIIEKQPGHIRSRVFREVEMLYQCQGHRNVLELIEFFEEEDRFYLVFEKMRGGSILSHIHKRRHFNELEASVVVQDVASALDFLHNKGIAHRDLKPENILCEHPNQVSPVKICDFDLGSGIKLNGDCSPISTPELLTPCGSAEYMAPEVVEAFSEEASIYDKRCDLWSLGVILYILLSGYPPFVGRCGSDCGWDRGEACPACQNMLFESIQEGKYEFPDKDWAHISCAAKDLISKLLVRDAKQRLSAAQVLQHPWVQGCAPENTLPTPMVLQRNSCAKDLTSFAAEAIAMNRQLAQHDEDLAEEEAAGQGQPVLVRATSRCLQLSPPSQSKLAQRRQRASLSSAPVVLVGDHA
# Chain of MNK1 (Q9BUB5 whole entry): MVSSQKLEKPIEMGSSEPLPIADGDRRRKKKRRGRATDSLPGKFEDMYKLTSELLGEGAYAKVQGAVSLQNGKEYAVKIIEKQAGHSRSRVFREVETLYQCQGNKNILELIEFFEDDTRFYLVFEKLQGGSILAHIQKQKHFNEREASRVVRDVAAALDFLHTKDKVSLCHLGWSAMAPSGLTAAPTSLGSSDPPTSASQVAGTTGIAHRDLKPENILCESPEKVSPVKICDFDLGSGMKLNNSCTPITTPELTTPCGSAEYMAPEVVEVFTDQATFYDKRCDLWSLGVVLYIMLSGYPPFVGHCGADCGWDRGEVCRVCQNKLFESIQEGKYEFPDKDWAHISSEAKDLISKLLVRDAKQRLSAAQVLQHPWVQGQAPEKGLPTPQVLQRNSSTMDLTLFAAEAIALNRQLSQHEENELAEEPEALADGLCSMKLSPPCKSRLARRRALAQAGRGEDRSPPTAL
"AUC(0-inf) ([1]; iv, 1 mg/kg)","AUC(0-t) ([1]; iv, 1 mg/kg)","clearance ([1]; iv, 1 mg/kg)","half-life ([1]; iv, 1 mg/kg)","Vd ([1]; iv, i.v., 1 mg/kg, read-out: Vz)","bioavailability ([1]; oral, p.o. 3 mg/kg vs i.v. 1 mg/kg)","AUC(0-inf) ([1]; po, 3 mg/kg)","AUC(0-t) ([1]; po, 3 mg/kg)","Cmax ([1]; po, 3 mg/kg)","Tmax ([1]; po, 3 mg/kg)","half-life ([1]; po, 3 mg/kg)",IC50 (MNK2),IC50 (Phosphorylated eIF4E),IC50 (MNK1),SMILES,inhibition of secretion of IL-6 (IL-6),inhibition of PD-1 expression (PD-1),inhibition of secretion of TNF-α (TNF-α),inhibition of Lag-3 expression (Lag-3),inhibition of Tim-3 expression (Tim-3),inhibition of secretion of IL-10 (IL-10)
632 ng·h/mL,619 ng·h/mL,27.2 mL/min/kg,3.73 h,4.14 L/kg,21.7%,391 ng·h/mL,402 ng·h/mL,45.2 ng/mL,1.75 h,6.97 h,< 10 nM,< 50 nM,< 10 nM,Cc1c2c(c(=O)n3c1C(=O)NC31CCCCC1)Nc1cc(NC(=O)C3CC3)ncc1C2 [Compound 26],significantly inhibited,significantly inhibited,significantly inhibited,significantly inhibited,significantly inhibited,significantly inhibited
,,,,,,,,,,,< 10 nM,,< 10 nM,"CC(=O)Nc1cc2c(cn1)Cc1c(C)c3n(c(=O)c1N2)C1(CCCCC1)NC3=O [Compound 21, 12(N-methyl-1,5-2,5,6,11-tetrahydro-1H-spiro[cyclohexane-1-imidazo[1,5-6]pyrido[3,4-b]naphthyridine1.6][8]′-yl)acetamide]",significantly inhibited,significantly inhibited,significantly inhibited,significantly inhibited,significantly inhibited,significantly inhibited
